“And” between values parts separate entries of the source, which are not always exact repeats. Equal entries are not always repeated.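 48-hour exposure; five concentrations; linearly interpolated endpoints. The concentration for 50% growth inhibition is given as GI50. TGI is the concentration that stops growth completely.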
Tests used:
Test in all cases: NCI tumour cell line growth inhibition, 48 h
SK-MEL-2 melanoma = test system: SK-MEL-2 melanoma
NCI-H226 lung = test system: NCI-H226 lung
PC-3 prostate = test system: PC-3 prostate
CCRF-CEM leukemia = test system: CCRF-CEM leukemia
MALME-3M melanoma = test system: MALME-3M melanoma
HT29 colon = test system: HT29 colon
SK-OV-3 ovarian = test system: SK-OV-3 ovarian
OVCAR-5 ovarian = test system: OVCAR-5 ovarian
UACC-62 melanoma = test system: UACC-62 melanoma
786-0 renal = test system: 786-0 renal

| SMILES | GI50 (SK-MEL-2 melanoma) [µM] | TGI (SK-MEL-2 melanoma) | GI50 (NCI-H226 lung) | TGI (NCI-H226 lung) | GI50 (PC-3 prostate) | TGI (PC-3 prostate) | GI50 (CCRF-CEM leukemia) | TGI (CCRF-CEM leukemia) | GI50 (MALME-3M melanoma) | TGI (MALME-3M melanoma) | GI50 (HT29 colon) [µM] | TGI (HT29 colon) | GI50 (SK-OV-3 ovarian) | TGI (SK-OV-3 ovarian) | GI50 (OVCAR-5 ovarian) | TGI (OVCAR-5 ovarian) | GI50 (UACC-62 melanoma) | TGI (UACC-62 melanoma) | GI50 (786-0 renal) [µM] | TGI (786-0 renal) |
| --- | --- | --- | --- | --- | --- | --- | --- | --- | --- | --- | --- | --- | --- | --- | --- | --- | --- | --- | --- | --- |
| CCSC[C@@H]1C[C@](O)(c2ccc(F)cc2)[C@@H](c2ccc(F)cc2)O1 | 19.8 | 42 µM | 17.8 µM | 38.8 µM | 15.8 µM | 30 µM | 12.5 µM | 30.2 µM | 19.9 µM | 37.3 µM | 14.1 | 27.7 µM | 18.3 µM | 38 µM | 20.2 µM | 37.9 µM | 13.4 µM | 27.4 µM | 16.4 | 31.1 µM |
| CC1SC2(CCCCC2)N(NC(=O)c2[nH]c3ccc(Br)cc3c2-c2ccccc2)C1=O (configuration not stated) | > 100 | > 100 µM | 40.7 µM | > 100 µM | 7.45 µM | 89.2 µM | 7 µM | > 100 µM | 17.2 µM | 59.3 µM | 8.1 | > 100 µM | > 100 µM | > 100 µM | 58.7 µM | > 100 µM | 9.66 µM | > 100 µM | 17.5 | 98.4 µM |
| CC(=O)O[C@H]1CC[C@@]2(C)C(=C/C(=N/OCCN3CCCC3)[C@H]3[C@@H]4CC[C@H](OC(C)=O)[C@@]4(C)CC[C@@H]32)C1 | 26.3 | 65 µM | > 100 µM | > 100 µM | 40.5 µM | > 100 µM | 42.9 µM | > 100 µM | 18 µM | 36.1 µM | 12.5 | > 100 µM | 40.8 µM | > 100 µM | 73.8 µM | > 100 µM | 45.3 µM | > 100 µM | 30.8 | > 100 µM |
| Cc1cc(S(=O)(=O)Nc2n[nH]c(N)n2)c(Cl)cc1Cl |  | > 10 µM |  | > 10 µM |  | > 10 µM |  | > 10 µM |  | > 10 µM |  | > 10 µM |  | > 10 µM |  | > 10 µM |  | > 10 µM |  | > 10 µM |
| COC(=O)[C@H](Cc1cn(C)cn1)NC(=O)[C@H](C)NC(=O)Nc1cc(C(F)(F)F)cc(C(F)(F)F)c1 | > 10 | > 10 µM | > 10 µM | > 10 µM | > 10 µM | > 10 µM | > 10 µM | > 10 µM | > 10 µM | > 10 µM | > 10 | > 10 µM | > 10 µM | > 10 µM | > 10 µM | > 10 µM | > 10 µM | > 10 µM | > 10 | > 10 µM |
| Cc1cccc2c3c(sc12)C(c1ccc(F)cc1)C(C#N)=C(N)O3 (configuration not stated) | 1.7 | 21.6 µM | 0.239 µM | 3.9 µM | 0.045 µM | 11.3 µM | 0.0439 µM | > 59.7 µM | 0.08 µM | 19 µM | 0.313 | 8.4 µM | 1.35 µM | 27.8 µM | 0.325 µM | 12.8 µM | 0.0433 µM | 11.7 µM | 0.297 | 14.2 µM |
| COc1ccc2c(c1)-c1nn(CCCN(C)C)c3ccc([N+](=O)[O-])c(c13)N2 |  | 4.28 µM and 4.55 µM | 0.25 µM and 0.664 µM | 3.75 µM and 6.86 µM | 0.112 µM and 0.343 µM | 2.75 µM and 3.93 µM | 0.0825 µM and 0.624 µM | 6.45 µM and 8.72 µM | 0.306 µM and 0.908 µM | 2.9 µM and 7.68 µM |  | 2.46 µM and 3.05 µM | 0.175 µM and 0.866 µM | 1.86 µM and 7.69 µM | 0.356 µM and 1.35 µM | 3.46 µM and 9.7 µM | 0.314 µM and 0.934 µM | 2.44 µM and 5.2 µM |  | 7.68 µM and 12.2 µM |
| CN(CCC(=O)/C(=C\c1ccccc1)c1ccc(Cl)cc1)Cc1ccccc1 | 2.6 | 7.23 µM | 2.44 µM | 5.53 µM | 2.93 µM | 9.49 µM | 1.44 µM | 6.91 µM | 3.23 µM | 11.8 µM | 2.28 | 5.2 µM | 12.7 µM | 26.4 µM | 3.53 µM | 10.4 µM | 1.91 µM | 4.37 µM | 2.03 | 4.1 µM |
| CC1OC(CC(=O)O)CC2=C1C(=O)c1c(O)cccc1C2=O (configuration not stated) |  | 1.14 µM |  | 3.13 µM |  | 0.817 µM |  | 0.0957 µM |  | 0.495 µM |  | 0.427 µM |  | 12.7 µM |  | 2.86 µM |  | 0.268 µM |  | 0.336 µM |
| NC(=O)c1sc(-n2cnc3cc(C(F)(F)F)ccc32)cc1OCc1ccccc1Br | > 25 | > 25 µM | > 17.2 µM | > 25 µM | > 20.4 µM | > 25 µM | > 19.2 µM | > 25 µM | > 16.2 µM | > 25 µM | > 19.5 | > 25 µM | 9.07 µM | > 25 µM | > 25 µM | > 25 µM | > 21.6 µM | > 25 µM | 18.4 | > 25 µM |
| O=C(CCCN1CCC(C(O)c2ccc(F)cc2)CC1)c1ccc(F)cc1 (configuration not stated) |  | 113 µM |  | 111 µM |  | 99.6 µM |  | 228 µM |  | 113 µM |  | 92.7 µM |  | 138 µM |  | 116 µM |  | 114 µM |  | 96.6 µM |
| NC1(Cc2ccc(Cl)cc2)CCN(c2ncnc3[nH]ccc23)CC1 | 14.6 | 31 µM | 6.96 µM | 25.1 µM | 2.99 µM | 23.5 µM | 3.05 µM | 24 µM | 6.3 µM | 21.6 µM | 3.7 | 17.8 µM | 2.35 µM | 15.8 µM | 8.33 µM | 43.6 µM | 5.85 µM | 20.4 µM | 2.68 | 17 µM |
| CC(=O)OC1=CC2(OC(C)=O)CC(C)(C)C1C1C(=O)C=CC(=O)C12 (configuration not stated) |  | > 100 µM |  | > 100 µM |  | > 100 µM |  | > 100 µM |  | 38.9 µM |  | 47.9 µM |  | > 100 µM |  | > 100 µM |  | 56.7 µM |  | > 81.7 µM |

— PubChem BioAssay (NCI)
